We go through 18 compounds from patent US9216981B2, “Purinylpyridinylamino-2,4-difluorophenyl sulfonamide derivative, pharmaceutically acceptable salt thereof, preparation method thereof, and pharmaceutical composition with inhibitory activity against Raf kinase, containing same as active ingredient” (Medpacto, Inc., priority 2010, dated 2015).

Experiment [1] has as its target B-Raf (Homo sapiens (Human), UniProt P15056). The experiment is described as follows: B-Raf kinase activity (B-Raf/MEK1/MAPK2 cascade, MBP phosphorylation, [γ-32P]ATP). It counts as biochemical. Conditions: activated B-Raf, inactivated MEK1, inactivated MAPK2, 30° C., 30 minutes, read-out: B-Raf Enzyme Activity. On the procedure:
To check the B-Raf kinase inhibitory activity of the compounds of the present invention, the following experiments were conducted.
20 μl of diluting solvent (20 mM MOPS, pH 7.2, 25 mM β-glycerol phosphate, 5 mM EGTA, 1 mM sodium orthovanadate, 1 mM dithiothreitol) and 10 μl of Mg/ATP mixed solution (500 μM ATP, 75 mM magnesium chloride) were added into a centrifuge tube, the derivative compound of Formula 1 was added or the compounds of the Examples were not added as a control group, and then 1 ng of activated B-Raf, 0.4 ng of inactivated MEK1, and 1 μg of inactivated MAPK2 were added. The solutions in the tube were collected on the bottom via centrifugation and were reacted at 30° C. for 30 minutes. After taking 4 μl of the mixed solution, the test proceeded to the next step.
(2) Phosphorylation of Matrix Protein MBP by MAPK2
10 μl of diluting solvent, 20 μg of MBP used as a matrix, and 10 μl of diluted [γ-32P]ATP (1 μCi/μL) were added into the 4 μl of the mixed solution obtained from (1). The solutions in the tube were collected on the bottom via centrifugation and were reacted at 30° C. for 30 minutes. And 25 μl of the reacted solution was put carefully on the center of a filter paper (2 cm×2 cm P81) for 30 seconds. Afterwards, the filter paper was cleaned with 0.75% phosphoric acid for 10 minutes three times and with acetone for 5 minutes one time. The filter paper was then moved to a scintillation vial and 5 ml of scintillation cocktail was added thereto. The inhibition rate (IC50) over B-Raf activity was measured by reading radioactivity through a scintillation counter while comparing to the control group.

The test system of experiment [2] is A375P cell line. The experiment is described as follows: B-Raf cell activity inhibition (A375P growth inhibition, MTT assay). Conditions: A375P human melanoma, V600E mutant of B-Raf, 72 hours. Format: cell-based. On the procedure: To check the B-Raf cell activity inhibitory capability of the compounds of the present invention, the following experiments were conducted in A375P cell line (ATCC). […] A375 cell was maintained in DMEM supplemented with 10% fetal bovine serum, glutamine (2 mM), penicillin (100 U/mL), and streptomycin (100 μg/mL). The cell was maintained at 37° C., and in 5% CO2 and 100% humidity. To conduct the growth inhibition test, the cell was plated by using a white 384-well microplate, with 1000 cells/20 μl plated per 1 well. After 24 hours, 5 μl of 5× stock solution of drug was added. All the drugs were initially prepared with 200× stock solution in DMSO, and the final concentration of DMSO was 0.5%. The cell was incubated at 37° C. for 72 hours. For MTT assay, ‘CellTiter 96 (R) Non-Radioactive Cell Proliferation Assay (G4100)’ kit by Promega Corp. was used. 15 μl of dye solution of the Promega kit was put into each well and was cultured in the incubator for 4 hours. And 100 μl of each Solubilization/Stop Solution substance of the kit was added and fixed in the incubator for 24 hours again. And then, absorbance was measured by using a 96-well plate reader with 570 nm of absorbance.

Each structure is given as a SMILES string. A value given as a limit tells only on which side of the number the result lay.

Sequence of B-Raf (P15056 whole entry): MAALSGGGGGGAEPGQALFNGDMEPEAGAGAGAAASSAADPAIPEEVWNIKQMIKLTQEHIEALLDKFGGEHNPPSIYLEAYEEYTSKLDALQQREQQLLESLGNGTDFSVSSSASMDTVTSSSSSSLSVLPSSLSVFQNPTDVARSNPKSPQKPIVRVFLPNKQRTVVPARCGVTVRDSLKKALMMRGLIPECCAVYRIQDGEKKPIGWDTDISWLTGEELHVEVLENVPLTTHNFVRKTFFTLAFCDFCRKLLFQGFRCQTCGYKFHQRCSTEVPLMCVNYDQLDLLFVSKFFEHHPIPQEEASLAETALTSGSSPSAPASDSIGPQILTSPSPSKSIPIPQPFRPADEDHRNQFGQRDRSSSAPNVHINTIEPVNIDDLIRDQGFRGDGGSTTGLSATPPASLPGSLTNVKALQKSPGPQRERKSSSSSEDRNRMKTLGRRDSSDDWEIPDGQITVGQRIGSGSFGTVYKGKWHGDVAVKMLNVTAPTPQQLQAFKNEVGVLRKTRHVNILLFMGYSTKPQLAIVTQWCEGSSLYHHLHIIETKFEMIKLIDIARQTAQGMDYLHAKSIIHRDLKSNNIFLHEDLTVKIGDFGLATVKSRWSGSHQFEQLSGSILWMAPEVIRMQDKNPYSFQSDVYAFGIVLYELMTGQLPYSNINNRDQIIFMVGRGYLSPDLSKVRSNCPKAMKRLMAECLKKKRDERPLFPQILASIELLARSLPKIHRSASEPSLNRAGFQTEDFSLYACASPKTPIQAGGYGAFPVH

Turning to `O=S(=O)(Nc1ccc(F)c(Nc2ncccc2-c2ncnc3[nH]cnc23)c1F)c1cccnc1` [Example 30, N-(3-(3-(9H-purin-6-yl)pyridin-2-ylamino)-2,4-difluorophenyl)pyridin-3-sulfonamide], the IC50 in experiment [1] turned out to be 4 nM; in experiment [2] it was 70 nM.
`O=S(=O)(Nc1ccc(F)c(Nc2ncccc2-c2ncnc3[nH]cnc23)c1F)c1ccoc1` [Example 18, N-(3-(3-(9H-purin-6-yl)pyridin-2-ylamino)-2,4-difluorophenyl)furan-3-sulfonamide]: the values for the IC50 in experiment [1] and in experiment [2] were 1 nM and 2 nM, respectively.
For `CCCS(=O)(=O)Nc1ccc(F)c(Nc2ncccc2-c2ncnc3[nH]cnc23)c1F` [Example 5, N-(3-(3-(9H-purin-6-yl)pyridin-2-ylamino)-2,4-difluorophenyl)propan-1-sulfonamide], the figures for the IC50 in experiment [1] and in experiment [2] were 23 nM and 310 nM, respectively.
As to `O=S(=O)(Nc1ccc(F)c(Nc2ncccc2-c2ncnc3[nH]cnc23)c1F)c1ccc(Cl)cc1F` [Example 8, N-(3-(3-(9H-purin-6-yl)pyridin-2-ylamino)-2,4-difluorophenyl)-4-chloro-2-fluorobenzenesulfonamide], the IC50 in experiment [1] is 33.7 nM; in experiment [2] it was 700 nM.
As for `Cn1ccc2cc(S(=O)(=O)Nc3ccc(F)c(Nc4ncccc4-c4ncnc5[nH]cnc45)c3F)ccc21` [Example 40, N-(3-(3-(9H-purin-6-yl)pyridin-2-ylamino)-2,4-difluorophenyl)-1-methyl-1H-indole-5-sulfonamide], the results for the IC50 in experiment [1] and in experiment [2] were greater than 10000 nM and greater than 15000 nM, respectively.
Take `O=S(=O)(Nc1ccc(F)c(Nc2ncccc2-c2ncnc3[nH]cnc23)c1F)N1CCOCC1` [Example 21, N-(3-(3-(9H-purin-6-yl)pyridin-2-ylamino)-2,4-difluorophenyl)morpholine-4-sulfonamide]: the figures for the IC50 in experiment [1] and in experiment [2] were 1300 nM and 360 nM, respectively.
For `O=S(=O)(Nc1ccc(F)c(Nc2ncccc2-c2ncnc3[nH]cnc23)c1F)c1ccccc1` [Example 35, N-(3-(3-(9H-purin-6-yl)pyridin-2-ylamino)-2,4-difluorophenyl)benzenesulfonamide], the IC50 turned out to be 20 nM in experiment [1] and 160 nM in experiment [2].
In the case of `Cc1cccc(Cl)c1S(=O)(=O)Nc1ccc(F)c(Nc2ncccc2-c2ncnc3[nH]cnc23)c1F` [Example 27, N-(3-(3-(9H-purin-6-yl)pyridin-2-ylamino)-2,4-difluorophenyl)-2-chloro-6-methylbenzenesulfonamide], the values for the IC50 in experiment [1] and in experiment [2] were 80 nM and 760 nM, respectively.
Regarding `Cc1cc(S(=O)(=O)Nc2ccc(F)c(Nc3ncccc3-c3ncnc4[nH]cnc34)c2F)c(C(F)(F)F)o1` [Example 26, N-(3-(3-(9H-purin-6-yl)pyridin-2-ylamino)-2,4-difluorophenyl)-5-methyl-2-(trifluoromethyl)furan-3-sulfonamide], the IC50 in experiment [1] worked out at 30 nM; in experiment [2] it was 330 nM.
Take `O=S(=O)(Nc1ccc(F)c(Nc2ncccc2-c2ncnc3[nH]cnc23)c1F)c1ccc(F)cc1C(F)(F)F` [Example 13, N-(3-(3-(9H-purin-6-yl)pyridin-2-ylamino)-2,4-difluorophenyl)-4-fluoro-2-(trifluoromethyl)benzenesulfonamide]: the IC50 is 420 nM in experiment [1] and 150 nM in experiment [2].
On to `Cn1ccc2cccc(S(=O)(=O)Nc3ccc(F)c(Nc4ncccc4-c4ncnc5[nH]cnc45)c3F)c21` [Example 42, N-(3-(3-(9H-purin-6-yl)pyridin-2-ylamino)-2,4-difluorophenyl)-1-methyl-1H-indole-7-sulfonamide], for which the results for the IC50 in experiment [1] and in experiment [2] were 800 nM and 5870 nM, respectively.
As to `O=S(=O)(Nc1ccc(F)c(Nc2ncccc2-c2ncnc3[nH]cnc23)c1F)c1ccc(F)c(Cl)c1` [Example 28, N-(3-(3-(9H-purin-6-yl)pyridin-2-ylamino)-2,4-difluorophenyl)-3-chloro-4-fluorobenzenesulfonamide], the IC50 in experiment [1] is 300 nM; in experiment [2], 1930 nM.
The like results for `O=S(=O)(Nc1ccc(F)c(Nc2ncccc2-c2ncnc3[nH]cnc23)c1F)c1cccc(Cl)c1Cl` [Example 34, N-(3-(3-(9H-purin-6-yl)pyridin-2-ylamino)-2,4-difluorophenyl)-2,3-chlorobenzenesulfonamide] were, in that order, 40 nM and 500 nM.
With `O=S(=O)(Nc1ccc(F)c(Nc2ncccc2-c2ncnc3[nH]cnc23)c1F)c1cccc2c1OCCC2` [Example 38, N-(3-(3-(9H-purin-6-yl)pyridin-2-ylamino)-2,4-difluorophenyl)chromane-8-sulfonamide], the IC50 in experiment [1] is 900 nM; in experiment [2] it was 7190 nM.
As to `Cc1c(Cl)cccc1S(=O)(=O)Nc1ccc(F)c(Nc2ncccc2-c2ncnc3[nH]cnc23)c1F` [Example 14, N-(3-(3-(9H-purin-6-yl)pyridin-2-ylamino)-2,4-difluorophenyl)-3-chloro-2-methyl benzenesulfonamide], the values for the IC50 in experiment [1] and in experiment [2] were 2 nM and 6 nM, respectively.
As for `Cc1nc(C)c(S(=O)(=O)Nc2ccc(F)c(Nc3ncccc3-c3ncnc4[nH]cnc34)c2F)s1` [Example 20, N-(3-(3-(9H-purin-6-yl)pyridin-2-ylamino)-2,4-difluorophenyl)-2,4-dimethylthiazole-5-sulfonamide], the IC50 came out at 160 nM in experiment [1] and 700 nM in experiment [2].
In the case of `COC(=O)c1sccc1S(=O)(=O)Nc1ccc(F)c(Nc2ncccc2-c2ncnc3[nH]cnc23)c1F` [Example 16, Methyl-3-(N-(3-(3-(9H-purin-6-yl)pyridin-2-ylamino)-2,4-difluorophenyl)sulfamoyl)thiophene-2-carboxylate], the values for the IC50 in experiment [1] and in experiment [2] were 1500 nM and 9600 nM, respectively.
With `O=S(=O)(Nc1ccc(F)c(Nc2ncccc2-c2ncnc3[nH]cnc23)c1F)c1cccc(Cl)c1` [Example 33, N-(3-(3-(9H-purin-6-yl)pyridin-2-ylamino)-2,4-difluorophenyl)-3-chloro benzenesulfonamide], the IC50 was 80 nM in experiment [1] and 770 nM in experiment [2].
